According to paper PMC7573564, “The Sensing Liver: Localization and Ligands for Hepatic Murine Olfactory and Taste Receptors” (Frontiers in Physiology, 2020):
Entries after “also recorded” stand apart in the source; their conditions may differ.

Columns and labels:
Olfr177 = Olfr177 (Mus musculus, UniProt E9Q7W1); assay: cAMP-dependent dual luciferase reporter assay, Olfr177 expressed in HEK293T cells; type: cell-based; conditions: for Olfr177 activation (cAMP response, Firefly:Renilla), in words: HEK293T cells expressing Olfr177; for EC50: HEK293T cells expressing Olfr177, Firefly:Renilla ratio, 4 h, dose response of at least 6 concentrations, read-out: EC50 for activation of Olfr177
Excerpt: (§1) For ORs whose trafficking conditions could be established as described above, an unbiased ligand screen using a dual-luciferase reporter assay (Promega) was used to identify potential ligands. Briefly, ORs were transiently transfected (Lipofectamine 2000, Invitrogen) in triplicate into HEK293T cells along with constructs encoding for CREB-dependent luciferase (Firefly) and a constitutively expressed luciferase (Renilla), along with any accessory proteins previously established to be required for effective cell-surface trafficking. Additional surface labeling experiments were performed with the Firefly and Renilla constructs to ensure effective trafficking was not lost under these transfection conditions. OR activation leads to a rise in cAMP which drives an increase in Firefly luciferase expression. Firefly activity is normalized to the activity of the Renilla luciferase to control for variation in cell number and transfection efficiency. Data were collected using a FLUOstar Omega automated plate reader (BMG LabTech, Cary, NC, United States). Cells were allowed to incubate for at least 30 min in CD293 minimal media, and were then bathed with potential odorants diluted in minimal media for 4 h before measuring Firefly and Renilla-derived luminescence. Initially, screening was performed using odorant mixes that are grouped mainly by functional groups (BzB: nonanal, heptanal, valeraldehyde; BzC: carvone, eugenol, cinnamaldehyde; MA: amyl acetate, 3-octanone, acetophenone; OXLK: 2,3-butanedione, pyruvaldehyde, acetic acid, 1,2-ethanedithiol, 2-butanone; THI-DI: 1,6-hexanedithiol, 1,2-ethanedithiol, 2-methyl-1-propanethiol, 1,2-butanedithiol, 2,3-butanedithiol). These mixtures are known to elicit activation of a large number of olfactory sensory neurons and thus cover a wide range of ‘odorant space’ ([Pluznick et al., 2013]), followed by any known ligands to ORs in the same family as those being tested, as well as physiologically relevant substances. A complete list of chemicals used for screening is found in Supplementary Table 1 and all chemicals tested were obtained from Sigma or Fisher Scientific. To begin, all compounds screened were tested at a minimum of two concentrations (100–300 μm and 1–5 mM) to cover a wide range of potential activation. For each assay, Olfr78 or Olfr1393 and known activators of these receptors (Propionate and Cycloheptanol, respectively) were used as positive controls. In order to determine specific activation, potential activators of one receptor were also tested on at least one other OR simultaneously. Negative controls were performed with both media, and media containing DMSO. […] A significant rise in Firefly:Renilla over baseline was determined by multiple T-Tests ([…] deemed significant).

heme oxygenase = test system: heme oxygenase; parameters: method as in Parra, 2012; conditions: hepatocellular carcinoma line (HepG2); ref Parra, 2012; cited from earlier work
phosphodiesterase = test system: phosphodiesterase; parameters: method as in Parra, 2012; conditions: ref Parra, 2012; cited from earlier work
OR5K1 = test system: OR5K1; parameters: method as in Wilkin Françoise et al., 2015; conditions: ref Wilkin Françoise et al., 2015; cited from earlier work
CYP2A6 = test system: CYP2A6; parameters: method as in Gyoubu and Miyazawa, 2007; Miyazawa and Gyoubu, 2007; conditions: ref Gyoubu and Miyazawa, 2007; cited from earlier work
Olfr57 = Olfr57 (Mus musculus, UniProt Q8VGU7); assay: cAMP-dependent dual luciferase reporter assay, Olfr57 expressed in HEK293T cells; type: cell-based; conditions: for EC50: HEK293T cells expressing Olfr57, Firefly:Renilla ratio, 4 h, dose response of at least 6 concentrations, read-out: EC50 for activation of Olfr57; for Olfr57 activation (cAMP-mediated response), in words: HEK293T cells expressing Olfr57
Excerpt: as §1

Candida albicans = test system: Candida albicans; parameters: method as in Manoharan et al., 2017; conditions: ref Manoharan et al., 2017; cited from earlier work
[1] = test system: Olfr16 and its human homolog, OR10J5; parameters: method as in von der Weid et al., 2015; Tong et al., 2017; conditions: ref von der Weid et al., 2015; Tong et al., 2017; cited from earlier work
Olfr544 = test system: Olfr544; parameters: method as in Abaffy et al., 2007; Kang et al., 2015; Thach et al., 2017; conditions: ref Abaffy et al., 2007; Kang et al., 2015; Thach et al., 2017; cited from earlier work
[2] = test system: Olfr78 and its human homolog, OR51E2; parameters: method as in Pluznick et al., 2013; conditions: ref Pluznick et al., 2013; cited from earlier work
MOR139-1 = test system: MOR139-1; parameters: method as in Hiroaki Matsunami, 2010; conditions: ref Hiroaki Matsunami, 2010; cited from earlier work

Olfr177, sequence (E9Q7W1 entry or part of it): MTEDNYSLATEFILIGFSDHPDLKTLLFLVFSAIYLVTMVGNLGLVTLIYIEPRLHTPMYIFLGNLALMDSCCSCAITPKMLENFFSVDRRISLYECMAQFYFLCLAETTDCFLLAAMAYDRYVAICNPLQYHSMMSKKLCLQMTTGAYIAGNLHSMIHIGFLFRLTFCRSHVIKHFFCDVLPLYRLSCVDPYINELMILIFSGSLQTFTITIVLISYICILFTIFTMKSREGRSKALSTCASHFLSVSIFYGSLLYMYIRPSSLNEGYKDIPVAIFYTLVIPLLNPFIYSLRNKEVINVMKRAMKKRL
Olfr57, sequence (Q8VGU7 entry or part of it): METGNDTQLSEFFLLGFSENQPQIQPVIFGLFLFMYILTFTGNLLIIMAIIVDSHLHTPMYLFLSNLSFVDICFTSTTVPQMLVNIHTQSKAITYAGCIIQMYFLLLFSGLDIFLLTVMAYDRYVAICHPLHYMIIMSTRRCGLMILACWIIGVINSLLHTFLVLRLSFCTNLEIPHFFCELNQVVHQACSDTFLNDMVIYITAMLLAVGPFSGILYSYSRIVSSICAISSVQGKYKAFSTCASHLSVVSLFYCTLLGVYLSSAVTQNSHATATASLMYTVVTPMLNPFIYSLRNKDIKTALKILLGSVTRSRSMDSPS

Which “Olfr177 activation (cAMP response, Firefly:Renilla), in words” value (from here on “Olfr177 activation”) (Olfr177) does the source give for `Cc1cnc(C)c(C)n1` [2,3,5-trimethylpyrazine] here?
The value was “failed to plateau”.

For `CCc1ncc(C)nc1C` [2-ethyl-3,5-dimethylpyrazine], which heme oxygenase activity (heme oxygenase) is on record?
Its heme oxygenase activity is “induced”.

And the “Olfr177 activation” value (Olfr177)?
The value was “significant increase”.

What about the EC50 (Olfr177) of the same molecule?
The EC50 was 1070 µM.

What about the phosphodiesterase activity (phosphodiesterase) of the same molecule?
The phosphodiesterase activity was “inhibit”.

And the “Activation of OR5K1” value (OR5K1)?
The value was “activated”.

Which EC50 (Olfr177) does the source give for `CCc1nccnc1C` [2-ethyl-3-methylpyrazine] here?
Its EC50 is 1670 µM.

Which “metabolized in the liver by microsomal enzyme CYP2A6” value (CYP2A6) does the source give for `CC12CCC(C1)C(C)(C)C2=O` [(1R)-(-)-fenchone] here?
The value was “metabolized”.

And the EC50 (Olfr57)?
Its EC50 is 94 µM.

And the “antibiofilm and antihyphal properties” value (Candida albicans)?
The value was “antibiofilm and antihyphal properties”.

With `CC(=O)c1ccccc1` [Acetophenone] as the molecule, how does the “Activation of Olfr16 and OR10J5” value [1] read?
Its value is “activated”.

For `O=C(O)CCCCCCCC(=O)O` [azelaic acid], which “Activation of Olfr544” value (Olfr544) is on record?
The value was “activated”.

For `CC1(C)C2CCC1(C)C(O)C2` (centres unmarked) [borneol], which EC50 (Olfr57) is on record?
The EC50 was 240 µM.

What about the “antibiofilm and antihyphal properties” value (Candida albicans) of the same molecule?
Its value is “antibiofilm and antihyphal properties”.

With `C=C1C2CCC(C2)C1(C)C` (centres unmarked) [camphene] as the molecule, how does the “Olfr57 activation (cAMP-mediated response), in words” value (“Olfr57 activation” for short) (Olfr57) read?
Its value is “did not elicit a cAMP-mediated response; also recorded: non-activators”.

With `CC1(C)C2CCC1(CS(=O)(=O)O)C(=O)C2` (centres unmarked) [camphorsulfonic acid] as the molecule, how does the “Olfr57 activation” value (Olfr57) read?
The value was “did not elicit a cAMP-mediated response; also recorded: non-activators”.

With `CC12CCC(CC1)C(C)(C)O2` [eucalyptol] as the molecule, how does the EC50 (Olfr57) read?
Its EC50 is 234 µM.

Which EC50 (Olfr57) does the source give for `CC12CCC(C1)C(C)(C)C2O` (centres unmarked) [fenchyl alcohol] here?
The EC50 was 45 µM.

And the “antibiofilm and antihyphal properties” value (Candida albicans)?
Its value is “antibiofilm and antihyphal properties”.

Which “Activation of Olfr16 and OR10J5” value [1] does the source give for `CC(C)(O)CCCC1=CCC(C=O)CC1` (centres unmarked) [lyral] here?
Its value is “activated”.

With `O=C1CC2CC[C@H]1C2` [norcamphor] as the molecule, how does the “Olfr57 activation” value (Olfr57) read?
The value was “did not elicit a cAMP-mediated response; also recorded: non-activators”.

Which “Olfr57 activation” value (Olfr57) does the source give for `C=C1CCC2CC1C2(C)C` (centres unmarked) [pinene] here?
The value was “did not elicit a cAMP-mediated response; also recorded: non-activators”.

With `c1cnccn1` [pyrazine] as the molecule, how does the “Olfr177 activation” value (Olfr177) read?
The value was “did not elicit OR activation”.

For `CC(C)[C@]12CC(=O)[C@H](C)[C@H]1C2` [thujone], which “Olfr57 activation” value (Olfr57) is on record?
Its value is “did not elicit a cAMP-mediated response; also recorded: non-activators”.

For `CC1=CC[C@@]23CC1C(C)(C)[C@@H]2CC[C@H]3C` [α-cedrene], which “Activation of Olfr16 and OR10J5” value [1] is on record?
The value was “activated”.

For `CC(=O)/C=C/C1=C(C)CCCC1(C)C` [β-ionone], which “Response of Olfr78 and OR51E2” value [2] is on record?
Its value is “respond”.

What does the source list for (1R)-(+)-camphor?
Response of MOR139-1 (MOR139-1): respond; Olfr57 activation (cAMP-mediated response), in words (Olfr57): weakly activate; antibiofilm and antihyphal properties (Candida albicans): antibiofilm and antihyphal properties
